Consider 5 compounds from patent publication US5214047A, “Tetracyclic quinazoline derivatives, effective as antiarrythmic agents” (priority 1987, dated 1993).

The experiment deals with QT interval. Nature of the experiment: QT interval prolongation (ECG, class III action) in anesthetized guinea pigs. Format: in vivo, Pirbright white guinea pigs. Particulars: guinea pigs, intravenous; for ED (20%): Cavia porcellus, urethane anesthesia, dose for 20% QT prolongation calculated from log dose (mg/kg) vs relative QT prolongation, read-out: Prolongation of the QT interval ED20%; for Potency relative to that of d-sotalol = 1.0: QT prolongation, ED20%. The method, then: The action of the novel substances has been tested as follows:
The experimental animals used were male and female Pirbright white guinea pigs weighing 300-500 g. 1.5 g/kg urethane i.p. were used for anesthesia. The substances were administered intravenously. The extremity lead II was recorded to measure the ECG conduction times and the heart rate. The measured variables were the QT and PQ intervals and the heart rate. 4-6 animals were used for each dose. The criterion for a class III action was an increase in the QT interval compared with the values before administration of the substance. A PQ increase and a large decrease in the heart rate were used as exclusion criteria. The ED20% is calculated from the linear relation between log dose (mg/kg) of the substance and the relative prolongation of the QT interval (Δ%).

Each structure is given as a SMILES string. Structures can show the parent of a compound that is named as a salt.

`CC1CN=C2c3ccccc3N3CCCC3(c3ccc([N+](=O)[O-])cc3)N21` (stereo not drawn) [Example 48, 2,3,5,6,7,8-Hexahydro-3-methyl-5-(4-nitrophenyl)imidazo[1,2-c]pyrrolo[1,2-a]quinazoline hydrochloride]: the ED (20%) was 0.31 mg/kg and the “Potency relative to that of d-sotalol = 1.0” value (from here on “Potency relative to that”) is reported as 11.8.

Regarding `c1ccc(C23CCCN2c2ccccc2C2=NCCCN23)cc1` (stereo not drawn) [Example 49, 2,3,5,6,7,8-Hexahydro-6-phenyl-2H-pyrimido[1,2-c]pyrrolo[1,2-a]quinazoline hydrochloride], the ED (20%) was 0.32 mg/kg and the “Potency relative to that” value was 11.

For the compound `c1ccc(C23CCCN2c2ccccc2C2=NCCN23)cc1` (stereo not drawn) [Example 50, hydrochloride], the ED (20%) is 0.25 mg/kg and the “Potency relative to that” value is listed as 15.

Take `CS(=O)(=O)Oc1ccc(C23CCCN2c2ccccc2C2=NCCN23)cc1` (stereo not drawn) [Example 53, hydrochloride]: the ED (20%) is 1 mg/kg and the “Potency relative to that” value amounted to 3.6.

Turning to `CC(C)NC[C@@H](O)c1ccc(NS(C)(=O)=O)cc1` [d-sotalol, reference compound], the ED (20%) is 3.6 mg/kg.
